Reference: US9695481B2, “Polynucleotides comprising a reporter sequence operatively linked to a regulatory element” (UNIVERSITEIT LEIDEN, priority 2010, dated 2017)
Entries after “also recorded” stand apart in the source; their conditions may differ. Counter-ions that a name gives are not always drawn. Like-named read-outs stand apart in the source and are kept apart here.

Tests used:
[1] = system: Bscl2-GFP mES reporter cells; test: Bscl2-GFP genotoxicity reporter; conditions: for Bscl2-GFP reporter induction: 24 h exposure; for effect on Bscl2-GFP reporter activation by CisPt or Aph: 10 uM CisPt or 1.5 uM Aph, 24 h
[2] = system: Srxn1-GFP mES reporter cells; test: Srxn1-GFP oxidative stress reporter; conditions: for Srxn1-GFP reporter induction: 24 h exposure, flow cytometry
[3] = system: Bscl2-GFP and Srxn1-GFP mES reporter cells
Salmonella = conditions: cited from earlier work
[4] = cited from earlier work
[5] = Genotoxicity profile; data extracted from Kirkland et al. 2008; cited from earlier work
[6] = system: mouse ES cell lines containing a DsRed fluorescent reporter; conditions: cited from earlier work
[7] = system: mouse ES cell lines containing a DsRed fluorescent reporter
[8] = system: Bscl2-GFP mES reporter cells
[9] = system: Srxn1-GFP mES reporter cells
[10] = system: ATM and ATR signaling pathways (phospho-Kap1, phospho-Chk1, phospho-p53); type: cell-based, mouse; conditions: Western blot, 24 h
Procedure: Mouse ES cells were propagated on irradiated primary mouse embryonic fibroblasts as feeders according to established protocols. […] For analysis of compounds that require metabolic activation, cells were exposed for 3 h in the presence of 1% S9 rat liver extract in 3.2 mM KCl, 0.8 mM MgCl2, 0.5 mM glucose-6-phosphate and 0.4 mM NADP.
Activation of the ATM and ATR signaling pathways in response to CisPt and Aph was determined by Western blot analysis. […] Proteins were transferred to PVDF membrane (Millipore) and detected using antibodies against phospho-Kap1 (Bethyl laboratories), phospho-Chk1 (Bethyl laboratories), phospho-p53 (Cell signaling) or Hprt (Santa Cruz) as protein loading control. Proteins were visualized using enhanced chemoluminescence (ECL).

[11] = from which GFP reporter is induced
[12] = Genotoxicity profile, data extracted from Kirkland et al. 2008

Molecule: C[C@@]1(CO)[C@H](O)CC[C@@]2(C)[C@H]1CC[C@H]1C[C@@H]3C[C@@]12CC[C@]3(O)CO [Aph, aphidicolin]
- Bscl2-GFP reporter induction ([1]; flow cytometry): significant induction of GFP expression
- Srxn1-GFP reporter induction [2]: slight reporter activation; also recorded: slightly activated

Molecule: [Cl][Cd][Cl] [Cadmium Chloride]
- Bscl2-GFP/Srxn1-GFP GFP Induction [3]: Pos. (considered positive when exposure to at least two different concentrations of a compound resulted in >1.5 fold induction of GFP expression)
- Bscl2-GFP/Srxn1-GFP Prim. toxic properties [3, 11]: Pro-oxidant
- Ames test (Salmonella): Pos.
- In vivo genotoxicity [4, 12]: Pos.
- In vitro genotoxicity [5]: Pos.
- mES DsRed reporters ([6]; Hendriks et al. 2011): Pos.
- Srxn1-GFP reporter induction [2]: Specific activation; also recorded: highly responsive
- Srxn1-GFP reporter induction ([2]; listed as CdCl2): strong, concentration-dependent increase in expression of the GFP reporter

Molecule: N.N.[Cl][Pt][Cl] [Cisplatin]
- DsRed reporter expression/activation [7]: clear induction of DsRed expression
- mRNA expression of Ephx1-DsRed reporter and endogenous Ephx1 gene ([7]; quantitative RT-PCR, up to 24 h): transcriptionally activated
- Bscl2-GFP/Srxn1-GFP GFP Induction [3]: Pos. (considered positive when exposure to at least two different concentrations of a compound resulted in >1.5 fold induction of GFP expression)
- GFP expression in Srxn1, Bscl2 and Btg2 GFP reporter cell lines ([3]; BAC TransgeneOmics lines, 30 hrs exposure, flow cytometry): increased
- mES DsRed reporters ([6]; Hendriks et al. 2011): Pos.
- time at which Bscl2-GFP expression became visible ([1]; 5 uM CisPt, live cell imaging): 12 h
- Srxn1-GFP reporter induction, live cell imaging ([2]; 5 uM CisPt or 100 uM DEM, up to 24 h): hardly responsive
- Srxn1-GFP reporter induction ([2]; listed as CisPt): also induced by the genotoxic compounds, albeit to a lesser extent; also recorded: slightly activated
- Srxn1-GFP reporter induction (mRNA) ([2]; quantitative RT-PCR, 8 or 16 h): somewhat responsive

Molecule: O=S(=O)([O-])[O-].[Cu+2] [Copper sulfate]
- Bscl2-GFP/Srxn1-GFP GFP Induction [3]: Pos. (key: Pos.: considered positive when exposure to at least two different concentrations of a compound resulted in >1.5 fold induction of GFP expression)
- Bscl2-GFP/Srxn1-GFP Prim. toxic properties [3]: Pro-oxidant
- GFP expression in Srxn1, Bscl2 and Btg2 GFP reporter cell lines [3]: increased
- Bscl2-GFP reporter induction [8]: not induced
- Srxn1-GFP reporter induction [9]: strong, concentration-dependent increase in expression of the GFP reporter

Molecule: CCOC(=O)/C=C\C(=O)OCC [Diethyl maleate]
- DsRed reporter expression/activation [7]: clear induction of DsRed expression
- Bscl2-GFP/Srxn1-GFP Prim. toxic properties [3]: Pro-oxidant
- GFP expression in Srxn1, Bscl2 and Btg2 GFP reporter cell lines [3]: increased
- Srxn1-GFP reporter induction (mRNA) [9]: highly induced
- mES DsRed reporters ([6]; Hendriks et al. 2011): Pos.
- exposure time after which Srxn1-GFP expression reached a plateau ([2]; 100 uM DEM, live cell imaging): 24 h
- exposure time after which Srxn1-GFP expression was clearly detectable ([2]; 100 uM DEM, live cell imaging): 8 h

Molecule: COc1cccc2c1C(=O)c1c(O)c3c(c(O)c1C2=O)C[C@@](O)(C(=O)CO)C[C@@H]3O[C@H]1C[C@H](N)[C@H](O)[C@H](C)O1 [Doxorubicin]
- Bscl2-GFP/Srxn1-GFP Prim. toxic properties [3]: Genotoxin
- GFP expression in Srxn1, Bscl2 and Btg2 GFP reporter cell lines [3]: increased
- Srxn1-GFP reporter induction [9]: also induced by the genotoxic compounds, albeit to a lesser extent
- Ames test (Salmonella; [12]): Pos.
- In vivo genotoxicity [4, 12]: Pos.
- In vitro genotoxicity [5]: Pos.
- mES DsRed reporters ([6]; Hendriks et al. 2011): Pos.

Molecule: COc1cc([C@@H]2c3cc4c(cc3[C@@H](O[C@@H]3O[C@@H]5CO[C@@H](C)O[C@H]5[C@H](O)[C@H]3O)[C@H]3COC(=O)[C@H]23)OCO4)cc(OC)c1O [Etoposide]
- Bscl2-GFP/Srxn1-GFP Prim. toxic properties [3]: Genotoxin
- Srxn1-GFP reporter induction [9]: also induced by the genotoxic compounds, albeit to a lesser extent
- In vivo genotoxicity [4, 12]: Pos.
- In vitro genotoxicity [5]: Pos.

Molecule: NC(=O)NO [HU, Hydroxyurea]
- Bscl2-GFP reporter induction [8]: significant induction of GFP expression
- Srxn1-GFP reporter induction [9]: slight reporter activation

Molecule: COS(C)(=O)=O [MMS, methyl methanesulphonate]
- DsRed reporter expression/activation [7]: clear induction of DsRed expression
- Bscl2-GFP/Srxn1-GFP GFP Induction [3]: Pos. (considered positive when exposure to at least two different concentrations of a compound resulted in >1.5 fold induction of GFP expression)
- Bscl2-GFP/Srxn1-GFP Prim. toxic properties [3, 11]: Pro-oxidant
- Ames test (Salmonella; [12]): Pos.
- In vivo genotoxicity ([4]; in vivo): Pos.
- mES DsRed reporters [6]: Pos.

Molecule: O=[As]O [Sodium arsenite]
- Bscl2-GFP/Srxn1-GFP GFP Induction [3]: Pos. (considered positive when exposure to at least two different concentrations of a compound resulted in >1.5 fold induction of GFP expression)
- Bscl2-GFP/Srxn1-GFP Prim. toxic properties [3, 11]: Pro-oxidant
- Ames test (Salmonella; [12]): Neg.
- In vivo genotoxicity [4, 12]: Pos.
- In vitro genotoxicity [5]: Pos.
- mES DsRed reporters ([6]; Hendriks et al. 2011): Pos.
- Bscl2-GFP reporter induction ([1]; flow cytometry): hardly responded
- Bscl2-GFP reporter induction ([1]; flow cytometry, listed as NaAsO2): not induced
- Srxn1-GFP reporter induction [2]: Specific activation; also recorded: highly responsive
- Srxn1-GFP reporter induction ([2]; listed as NaAsO2): strong, concentration-dependent increase in expression of the GFP reporter; also recorded: preferentially induced

Molecule: CN[C@@H]1C[C@H]2O[C@@](C)([C@@H]1OC)n1c3ccccc3c3c4c(c5c6ccccc6n2c5c31)C(=O)N[C@@H]4O [UCN-01]
- effect on Bscl2-GFP reporter activation by CisPt or Aph ([1]; flow cytometry): almost completely be repressed

Molecule: Cc1cccc(Nc2cc(Cl)nc(SCC(=O)O)n2)c1C [Wyeth-14,643]
- DsRed reporter expression/activation [7]: did not induce any reporter activation

Molecule: O=P1(N(CCCl)CCCl)NCCCO1 (stereo not shown) [cyclophosphamide]
- survival of Bscl2-GFP reporter cells after S9-dependent activation [8]: reduced survival
- Bscl2-GFP reporter induction with metabolic activation ([8]; mouse): induced expression of the Bscl2-GFP reporter only when incubated in the presence of rat S9 mix

Molecule: CC/C(=C(/CC)c1ccc(O)cc1)c1ccc(O)cc1 [diethylstilbestrol]
- DsRed reporter expression/activation [7]: did not induce any reporter activation

Molecule: Cc1c2ccccc2c(C)c2c1ccc1ccccc12 [dimethylbenz(a)antracene]
- Bscl2-GFP reporter induction with metabolic activation ([1]; 3 h with/without S9 rat liver extract, GFP after 24 h, flow cytometry): induced expression of the Bscl2-GFP reporter only when incubated in the presence of rat S9 mix
- survival of Bscl2-GFP reporter cells after S9-dependent activation ([1]; fraction of intact cells, flow cytometry): reduced survival

Molecule: O=c1cc(-c2cccc3c2Sc2ccccc2S3)oc(N2CCOCC2)c1 [ku55933]
- effect on phosphorylation of Kap1, Chk1 and p53 in response to CisPt and Aph [10]: prevented phosphorylation of Kap1 and p53
- effect on Bscl2-GFP reporter activation by CisPt or Aph ([1]; flow cytometry): unaffected

Molecule: COc1cc2c(c(OC)c1OC)-c1c(cc3c(c1OC)OCO3)CC(C)C(C)C2 (stereo not shown) [schisandrin B]
- effect on phosphorylation of Kap1, Chk1 and p53 in response to CisPt and Aph [10]: diminished Chk1 and p53 phosphorylation
- effect on Bscl2-GFP reporter activation by CisPt or Aph ([1]; flow cytometry): almost completely be repressed

Molecule: Mitomycin C
- Bscl2-GFP/Srxn1-GFP GFP Induction [3]: Pos. (key: Pos.: considered positive when exposure to at least two different concentrations of a compound resulted in >1.5 fold induction of GFP expression)
- Bscl2-GFP/Srxn1-GFP Prim. toxic properties [3]: Genotoxin
- GFP expression in Srxn1, Bscl2 and Btg2 GFP reporter cell lines [3]: increased
- Srxn1-GFP reporter induction [9]: also induced by the genotoxic compounds, albeit to a lesser extent

Molecule: aflatoxin B1
- Bscl2-GFP reporter induction with metabolic activation [1]: induced expression of the Bscl2-GFP reporter only when incubated in the presence of rat S9 mix
